Measured values as given in patent publication US5141627A, “Chelators whose affinity for calcium ion is increased by illumination” (The Regents of the University of California, priority 1989, dated 1992).
One block for each molecule: values may come before it. Bridges are numbered along the chain shown (N, C = ends). Where no end group is shown, it is not given here.

Legend:
[1] = Yield of high affinity chelator / low-affinity side product after photolysis; assay type: physicochemical
Description: Because of the direct conjugation of the dialkylamine moiety with the diazoketone group, diazo-2 has a large absorbance in the 350-400 nm range, which shifts 50 nm to shorter wavelengths on binding Ca^2+ (FIG. 1A). The dissociation constant for Ca^2+ is relatively high, at 2.2 μM, due to the electron withdrawing ability of the carbonyl group. Photolysis occurs at 365 nm with a quantum yield of 0.030. The peak at […] in zero Ca^2+ decreases to near baseline giving a spectrum similar to that of unsubstituted BAPTA, although a small peak remains at 355 nm (FIG. 1B). […] The reaction of diazo-2 with dilute aqueous acid should give the same product whose absorbance spectrum indeed matched that of the residual peak at 355 nm after photolysis in low Ca^2+. […] Once the extinction coefficient for the hydroxyacetyl derivative was known, the amount of the side product arising from photolysis is calculated to be about 10%.

[2] = Mg2+ affinity in Mg/EGTA buffers; assay type: binding; conditions: after photolysis; 0.1-0.15M ionic strength, pH 7.0-7.4, 20-23° C.; read-out: Kd (Mg2+), after photolysis
Description: (§1) Ca^2+ -binding constants for chelators before and after photolysis were determined by monitoring UV spectra during titration of EGTA or HEEDTA buffers to varying free Ca^2+ levels.
Free [Mg^2+ ] was likewise controlled by Mg/EGTA buffers, assuming an apparent dissociation constant for the Mg.EGTA complex (including its monoprotonated form) of 6 mM at pH 7.60 in 0.1M ionic strength; see R. Y. Tsien, et al. (1986) and A. E. Martell, et al. (1974).

[3] = Quantum efficiency and completion of photolysis; assay type: physicochemical
Description: Spectra were obtained after 0, 2, 5, 9, 16, 28, 46, 80, 150, 285, 505 and 903 sec of 365-nm illumination at 7.82×10^- 9 einsteins cm^-2 s^-1 from Spectroline lamp. For clarity only the 0-, 9-, 28-, 46-, 80-, 150-, and 505-s spectra are reproduced herein. The 505- and 903-s spectra were identical, confirming completion of photolysis after those times. Solutions were at 22±2° C.
The method was as described in FIG. 1B except that the EGTA was replaced by 2 mM CaCl2, and spectra were measured after 0-, 50-, 100-, 203-, 412-, 840-, 1730-, 4080-, and 8000-s illumination. The last two spectra were identical, confirming completion. For clarity the 50- and 8000-s spectra are omitted.
The photolysis quantum efficiencies of diazo chelators were determined by alternately irradiating a buffered solution of the substrate with a known intensity of longwave UV light, and measuring the absorbance spectrum, in apparatus described by S. R. Adams, et al. (1988), supra.

[4] = Absorbance spectra of free and Ca2+-bound chelators; assay type: physicochemical
Description: (§2) The titration was done at 22° C. with 10 mL of 100 mM KCl, 10 mM K-MOPS, 10 mM K2 H.HEEDTA, and 14 […] diazo-2 as starting materials, adjusting the pH to 7.24, recording the spectrum, and then discarding 1.0 mL of this solution and replacing with 1.0 mL of 100 mM KCl, 10 mM K.MOPS, 10 mM KCa.HEEDTA, 14 μM diazo-2, readjusting the pH to 7.24, and recording the spectra, which was then in 9 mM K2H.HEEDTA. Subsequent iterations to reach n mM KCa.HEEDTA, (10-n) mM HEEDTA, n=2-10, were done by discarding 10.0/(11-n) mL and replacing with equal volumes of the 10mM KCa.HEEDTA, 14 μM diazo-2 stock. After n=10 had been reached to give free Ca^2+ between 10^-5 and 10^-4 M, addition of 1 mM CaCl2 had no further effect on the spectrum. For clarity only six spectra are including in the figure, n=0, 2, 4, 6, 8, and 10. Each spectrum is labeled with the calculated free [Ca^2+ ] imposed by the HEEDTA buffer, assuming a log effective stability constant of 5.55 at pH 7.24.
(§3) The phenylacetate was produced by irradiating a 30 μM solution of diazo-2 in 100 mM KCl, 10 mM Tris.HCl, 10 mM K2 H.HEEDTA, pH 8.40, with Spectroline lamp at 365 nm to completion. The titration was then performed as in A but the pH was maintained at 8.40, at which the calculated log effective stability is constant for HEEDTA was 6.60.
Proton magnetic resonance spectra (^1 H NMR) were recorded on a Varian EM-390 90-MHz spectrometer in CDCl3 unless otherwise noted, and the chemical shifts are given in δ values relative to tetramethylsilane. Ultraviolet (UV) absorbance spectra were recorded on a Cary 210 or a Perkin-Elmer Lambda Array 3840 spectrophotometer at 20°±2° C. Melting points are in Centigrade and are uncorrected. Elemental analyses were performed by the Microanalytical Laboratory in the Department of Chemistry, University of California, Berkeley, Calif.

[5] = Ca2+ affinity by UV spectra during titration of EGTA or HEEDTA buffers; assay type: binding
Description: as §2, §3, §1
Either the ratio of, for example, [Ca.EGTA] to free [EGTA] was adjusted at a constant pH, or the pH was varied while [Ca.EGTA]=[EGTA]. These two approaches gave equivalent answers for pH>7 whenever directly tested, because of the pH insensitivity of BAPTA-like ligands (see FIG. 1 legend for more details). The apparent dissociation constants of Ca.EGTA and Ca.HEEDTA were calculated as described by R. Y. Tsien (1980); see also R. Y. Tsien, et al. (1986), S. R. Adams, et al. (1980), Grynkiewicz, et al., (1985), and Jackson, et al. (1987).

REF52 fibroblast cell = assay: Intracellular free Ca2+ in REF52 fibroblasts on vasopressin stimulation and UV photolysis (fluo-3); assay type: cell-based, Fisher rat; conditions: 50 nM [arg8]-vasopressin
Text: The tetraacetoxymethyl esters of diazo-2 and diazo-3 were synthesized. The acetoxymethyl (AM) groups mask the negative charges on the carboxylate functions, so the AM ester of diazo-2 and diazo-3 can easily diffuse across the cell membrane, which is largely impermeable to ions. Once inside the cell, non-specific esterases in the cell hydrolytically cleave the AM esters and restore diazo-2 and diazo-3 to their tetracarboxylate forms, which being polyanions, are trapped within the cell. […] Prior to the start of data acquisition (t=0), the REF52 fibroblast cell was loaded with diazo-2 and fluo-3. […] Its fluorescence quantum yield is enhanced about 40-fold by Ca^2+ binding, which occurs with a Kd of 400 nM.
Prior to the start of data acquisition, the REF52 fibroblast cell was loaded with fluo-3 and diazo-2 by incubation for 30 min at 25° C. DME medium containing 1 μM diazo-2/AM and 10 μM fluo-3/AM. Acquisition of fluo-3 fluorescence intensity images was begun at time 0. The fluorescence intensity data was converted to intracellular Ca^2+ concentrations using a calibration procedure previously described. The event markers correspond to 1) stimulating the cell with 50 nM [arg^8 ]-vasopressin,and 2) flashing the cell for 1 s with UV light.
The experimental conditions were the same as in (A) except that the cell wa loaded with fluo-3 and diazo-3 (instead of diazo-2) by incubation for 90 min at 25° C. in DME medium containing 10 μm fluo-3/AM and […] diazo-3/AM. The event markers correspond to 1) stimulating the cell with 50 nM [arg^8 ]-vasopressin, and 2) flashing the cell for 1 s of UV light.
For preliminary biological tests, Fisher rat embryo fibroblast of the REF52 cell line were cultured as described by J. P. Y. Kao, et al. (1989).
For testing diazo-2, REF52 cells were incubated for 30 min at 25° C. in Dulbecco's modified Eagle's medium, buffered at pH 7.4 with 20 mM HEPES and containing 1 μM diazo-2/AM and 10 μM fluo-3/AM. For control experiments using diazo-3, the cells were incubated for 90 min at 25° C. in DMEM, buffered to pH 7.4 with 20 mM HEPES and containing 1 μM diazo-3/AM and […] fluo-3/AM. After loading, the cells were gently washed, transferred into Hanks' Balanced Salt Solution containing 0.2 mM sulfinpyrazone to inhibit non-specific organic anion transport (see Tsien, 1989), and mounted on a 25° C. microscope stage for experimentation.
Flash photolysis of trapped cellular diazo-2 and the concomitant monitoring of intracellular free Ca^2+ concentration with fluo-3, a fluorescent Ca^2+ indicator, were performed using methodology and instrumentation described in A. Minta, et al (1989) and J. P. Y. Kao, et al. (1989). Briefly, output form a Xe arc lamp was passed through a monochromator to yield the 490 nm light used to probe the fluo-3 trapped intracellularly. The fluo-3 fluorescence images of cells were recorded using a SIT TV camera. Images were stored on a high-resolution monochrome laser disc recorder (Panasonic TQ-2028) for delayed processing. Photolyses were performed by briefly moving a chopper mirror to send broad-band UV from an XBO 75 W xenon arc lamp and UG-2 filter into the microscope instead of 490 nm fluo-3 excitation. The microscope objective (Nikon UV-CF, 40X) was chosen for its high UV transmission and numerical aperture (1.3). […] The same computer was used to analyze the fluorescence images acquired during the experiment.

- Photolysis yield (yield of high affinity Ca2+ chelator after photolysis) ([1]; after photolysis): 88
- low-affinity side product on complete photolysis, expected ([1]; complete photolysis, expected): 19%
- low-affinity side product on complete photolysis, measured ([1]; residual absorbance at 355 nm): 20%
- Kd [2]: 2.6 mM
- quantum yield relative to diazo-2 ([3]; compared with diazo-2): approximately half that of diazo-2
- Φ quantum efficiency of photolysis, +Ca2+ ([3]; saturating [Ca2+]): 0.015
- Φ quantum efficiency of photolysis, free ([3]; zero [Ca2+]): 0.015
- εmax, +Ca2+ ([4]; +Ca2+, at λmax): 42.3 10^-3, M^-1 cm^-1
- λmax, +Ca2+ ([4]; +Ca2+, dominant peak at longest wavelength): 320 nm
- εmax, free ([4]; free (zero Ca2+), at λmax): 46.0 10^-3, M^-1 cm^-1
- λmax, free ([4]; free (zero Ca2+), dominant peak at longest wavelength): 371 nm
- Kd ([5]; after photolysis, 0.1-0.15M ionic strength, 20-23° C., read-out: Kd (Ca2+), after photolysis): 55 nM
- Kd ([5]; before photolysis, 0.1-0.15M ionic strength, pH 7.0-7.4, 20-23° C., read-out: Kd (Ca2+), before photolysis): 89000 nM
Molecule: [N-]=[N+]=CC(=O)c1ccc(N(CC(=O)O)CC(=O)O)c(OCCOc2cc(C(=O)C=[N+]=[N-])ccc2N(CC(=O)O)CC(=O)O)c1 [diazo-4, 1,2-bis(2-bis(carboxymethyl)amino-5-(diazoacetyl)phenoxy)ethane]
- change in Ca2+ affinity upon photolysis ([5]; complete photolysis): 1600 fold

- amount of side product arising from photolysis ([1]; hydroxyacetyl derivative, from photolysis of diazo-2, calculated): about 10%
- photosensitivity (in words) ([3]; product of diazo-2 with dilute aqueous acid): complete lack of photosensitivity
- Kd ([5]; side product after photolysis of diazo-2, from deviation of Hill plot, read-out: dissociation constant of side product): ~1000 nM
Molecule: Cc1ccc(N(CC(=O)O)CC(=O)O)c(OCCOc2cc(C(=O)CO)ccc2N(CC(=O)O)CC(=O)O)c1 [para-(2-hydroxyacetyl) derivative]

Molecule: [arg^8 ]-vasopressin: stimulus of the REF52 cell, 50 nM (CYFQNCPRG-NH2; disulfide 1-6; UniProt P01185 20-28, looked up) [reference compound]
- [Ca2+]i response to stimulation (in words) (REF52 fibroblast cell): sharp but transient rise
- [Ca2+]i plateau after stimulation (REF52 fibroblast cell; before UV): about 200 nM
